Measured values as given in the supplement of paper PMC10307832.

Assays:
Experiment in all cases: relative viability (nuclei count vs DMSO), 5 days (fraction); higher = more cells survive
BEN = system: BEN
In short: (§1)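 One day after seeding in 1536-well plates, lung cancer cell lines were dosed by pin tool. Dosing was either single-drug or a fixed anchor-drug dose plus five library-drug doses (not always all listed) in √10 steps. After 5 days, nuclei were stained in one fix-and-stain step and counted on 4× images, and relative viability is the nuclei count of treated wells over that of vehicle wells, given as the median of duplicate plates.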

COR-L 105 = system: COR-L 105
In short: as §1

EKVX = system: EKVX
In short: as §1

EMC-BAC-2 = system: EMC-BAC-2
In short: as §1

EPLC-272H = system: EPLC-272H
In short: as §1

HCC-78 = system: HCC-78
In short: as §1

HCC-827 = system: HCC-827
In short: as §1

LCLC-97TM1 = system: LCLC-97TM1
In short: as §1

LK-2 = system: LK-2
In short: as §1

LOU-NH91 = system: LOU-NH91
In short: as §1

LU99A = system: LU99A
In short: as §1

NCI-H1650 = system: NCI-H1650
In short: as §1

NCI-H2087 = system: NCI-H2087
In short: as §1

NCI-H2126 = system: NCI-H2126
In short: as §1

NCI-H358 = system: NCI-H358
In short: as §1

NCI-H522 = system: NCI-H522
In short: as §1

NCI-H727 = system: NCI-H727
In short: as §1

SK-MES-1 = system: SK-MES-1
In short: as §1

SW 1573 = system: SW 1573
In short: as §1

SW 900 = system: SW 900
In short: as §1

`COCC1(CO)C(=O)C2CCN1CC2` (stereo not drawn) [PRIMA-1MET] + Cc1cc(Nc2cc(N3CCN(C)CC3)nc(Sc3ccc(NC(=O)C4CC4)cc3)n2)n[nH]1 [Tozasertib] (partner 0.1 µM) was tested, and the relative viability (BEN; first compound 0.2 µM) was 0.504, the relative viability (BEN; first compound 0.6325 µM) was 0.473 and the relative viability (BEN; first compound 6.325 µM) was 0.501. It also gave a relative viability (BEN; first compound 20 µM) of 0.538, a relative viability (COR-L 105; first compound 0.2 µM) of 0.228 and a relative viability (COR-L 105; first compound 0.6325 µM) of 0.338. It also gave a relative viability (COR-L 105; first compound 2 µM) of 0.32, a relative viability (COR-L 105; first compound 6.325 µM) of 0.294 and a relative viability (COR-L 105; first compound 20 µM) of 0.167. The relative viability (EKVX; first compound 0.2 µM) was 0.452, the relative viability (EKVX; first compound 0.6325 µM) was 0.357 and the relative viability (EKVX; first compound 6.325 µM) was 0.397. For the same compound, the relative viability (EKVX; first compound 20 µM) was 0.366, the relative viability (EMC-BAC-2; first compound 0.2 µM) was 0.335 and the relative viability (EMC-BAC-2; first compound 0.6325 µM) was 0.332. The relative viability (EMC-BAC-2; first compound 6.325 µM) was 0.277, the relative viability (EMC-BAC-2; first compound 20 µM) was 0.191 and the relative viability (EPLC-272H; first compound 2 µM) was 0.186. It also gave a relative viability (EPLC-272H; first compound 6.325 µM) of 0.196, a relative viability (EPLC-272H; first compound 20 µM) of 0.105 and a relative viability (HCC-78; first compound 0.2 µM) of 0.47. It also gave a relative viability (HCC-78; first compound 0.6325 µM) of 0.414, a relative viability (HCC-78; first compound 6.325 µM) of 0.385 and a relative viability (HCC-78; first compound 20 µM) of 0.228. For the same compound, the relative viability (HCC-827; first compound 0.2 µM) was 0.424, the relative viability (HCC-827; first compound 0.6325 µM) was 0.387 and the relative viability (HCC-827; first compound 2 µM) was 0.376. For the same compound, the relative viability (HCC-827; first compound 6.325 µM) was 0.399, the relative viability (HCC-827; first compound 20 µM) was 0.379 and the relative viability (LCLC-97TM1; first compound 0.2 µM) was 0.237. It also gave a relative viability (LCLC-97TM1; first compound 0.6325 µM) of 0.239, a relative viability (LCLC-97TM1; first compound 2 µM) of 0.325 and a relative viability (LCLC-97TM1; first compound 6.325 µM) of 0.204. The relative viability (LCLC-97TM1; first compound 20 µM) was 0.123, the relative viability (LK-2; first compound 0.2 µM) was 0.189 and the relative viability (LK-2; first compound 0.6325 µM) was 0.177. It also gave a relative viability (LK-2; first compound 2 µM) of 0.144, a relative viability (LK-2; first compound 6.325 µM) of 0.161 and a relative viability (LK-2; first compound 20 µM) of 0.132. The relative viability (LOU-NH91; first compound 0.2 µM) was 0.618, the relative viability (LOU-NH91; first compound 0.6325 µM) was 0.673 and the relative viability (LOU-NH91; first compound 2 µM) was 0.625. The relative viability (LOU-NH91; first compound 6.325 µM) was 0.715, the relative viability (LOU-NH91; first compound 20 µM) was 0.427 and the relative viability (LU99A; first compound 0.2 µM) was 0.282. The relative viability (LU99A; first compound 0.6325 µM) was 0.268, the relative viability (LU99A; first compound 2 µM) was 0.277 and the relative viability (LU99A; first compound 6.325 µM) was 0.284. It also gave a relative viability (LU99A; first compound 20 µM) of 0.0311, a relative viability (NCI-H1650; first compound 0.2 µM) of 0.516 and a relative viability (NCI-H1650; first compound 0.6325 µM) of 0.377. It also gave a relative viability (NCI-H1650; first compound 2 µM) of 0.492, a relative viability (NCI-H1650; first compound 6.325 µM) of 0.537 and a relative viability (NCI-H1650; first compound 20 µM) of 0.0907. The relative viability (NCI-H2087; first compound 0.2 µM) was 0.321, the relative viability (NCI-H2087; first compound 0.6325 µM) was 0.279 and the relative viability (NCI-H2087; first compound 2 µM) was 0.267. For the same compound, the relative viability (NCI-H2087; first compound 6.325 µM) was 0.271, the relative viability (NCI-H2087; first compound 20 µM) was 0.126 and the relative viability (NCI-H2126; first compound 0.2 µM) was 1.07. The relative viability (NCI-H2126; first compound 0.6325 µM) was 0.868, the relative viability (NCI-H2126; first compound 2 µM) was 0.854 and the relative viability (NCI-H2126; first compound 6.325 µM) was 0.898. The relative viability (NCI-H2126; first compound 20 µM) was 0.807, the relative viability (NCI-H358; first compound 0.2 µM) was 0.105 and the relative viability (NCI-H358; first compound 2 µM) was 0.098. The relative viability (NCI-H358; first compound 6.325 µM) was 0.117, the relative viability (NCI-H358; first compound 20 µM) was 0.0866 and the relative viability (NCI-H522; first compound 0.2 µM) was 0.602. For the same compound, the relative viability (NCI-H522; first compound 0.6325 µM) was 0.455, the relative viability (NCI-H522; first compound 2 µM) was 0.46 and the relative viability (NCI-H522; first compound 6.325 µM) was 0.507. The relative viability (NCI-H522; first compound 20 µM) was 0.0873, the relative viability (NCI-H727; first compound 0.2 µM) was 0.549 and the relative viability (NCI-H727; first compound 0.6325 µM) was 0.543. For the same compound, the relative viability (NCI-H727; first compound 2 µM) was 0.643, the relative viability (NCI-H727; first compound 6.325 µM) was 0.487 and the relative viability (NCI-H727; first compound 20 µM) was 0.293. For the same compound, the relative viability (SK-MES-1; first compound 0.2 µM) was 1.02, the relative viability (SK-MES-1; first compound 0.6325 µM) was 0.888 and the relative viability (SK-MES-1; first compound 2 µM) was 0.962. For the same compound, the relative viability (SK-MES-1; first compound 6.325 µM) was 0.876, the relative viability (SK-MES-1; first compound 20 µM) was 0.907 and the relative viability (SW 1573; first compound 0.2 µM) was 0.189. It also gave a relative viability (SW 1573; first compound 0.6325 µM) of 0.0874, a relative viability (SW 1573; first compound 2 µM) of 0.191 and a relative viability (SW 1573; first compound 6.325 µM) of 0.0585. The relative viability (SW 1573; first compound 20 µM) was 0.0263, the relative viability (SW 900; first compound 0.2 µM) was 0.784 and the relative viability (SW 900; first compound 0.6325 µM) was 0.465. It also gave a relative viability (SW 900; first compound 2 µM) of 0.524, a relative viability (SW 900; first compound 6.325 µM) of 0.388 and a relative viability (SW 900; first compound 20 µM) of 0.084.
